± gives the expanded uncertainty stated by the source.
What was measured:
[1] = refractive index (Na D-line) (dimensionless); settings: 101.33 kPa, Liquid, Standard Abbe refractometry
[2] = 101.33 kPa, Liquid; for viscosity: Capillary tube (Ostwald / Ubbelohde) method; for mass density: Vibrating tube method

CCCCCCCO [heptan-1-ol]
refractive index ([1]; 293.15 K): 1.42429 ± 0.00037
refractive index ([1]; 298.15 K): 1.42227 ± 0.00037
refractive index ([1]; 303.15 K): 1.42023 ± 0.00037
viscosity ([2]; 293.15 K): 7.106 ± 0.15 mPa·s
mass density ([2]; 293.15 K): 822.52 ± 0.24 kg/m3
viscosity ([2]; 298.15 K): 5.966 ± 0.13 mPa·s
mass density ([2]; 298.15 K): 818.99 ± 0.24 kg/m3
viscosity ([2]; 303.15 K): 4.841 ± 0.1 mPa·s
mass density ([2]; 303.15 K): 815.4 ± 0.24 kg/m3

CCCCCCCCCCO [decan-1-ol]
refractive index ([1]; 293.15 K): 1.43728 ± 0.00037
refractive index ([1]; 298.15 K): 1.43531 ± 0.00037
refractive index ([1]; 303.15 K): 1.43345 ± 0.00037
viscosity ([2]; 293.15 K): 14.52 ± 0.3 mPa·s
mass density ([2]; 293.15 K): 829.97 ± 0.24 kg/m3
viscosity ([2]; 298.15 K): 11.82 ± 0.25 mPa·s
mass density ([2]; 298.15 K): 826.58 ± 0.24 kg/m3
viscosity ([2]; 303.15 K): 9.738 ± 0.2 mPa·s
mass density ([2]; 303.15 K): 823.13 ± 0.24 kg/m3

NC1CCCCC1 [cyclohexylamine]
refractive index ([1]; 293.15 K): 1.45936 ± 0.00037
refractive index ([1]; 298.15 K): 1.45694 ± 0.00037
refractive index ([1]; 303.15 K): 1.45427 ± 0.00037
viscosity ([2]; 293.15 K): 2.142 ± 0.046 mPa·s
mass density ([2]; 293.15 K): 867.2 ± 0.24 kg/m3
viscosity ([2]; 298.15 K): 1.909 ± 0.041 mPa·s
mass density ([2]; 298.15 K): 862.69 ± 0.24 kg/m3
viscosity ([2]; 303.15 K): 1.699 ± 0.036 mPa·s
mass density ([2]; 303.15 K): 858.12 ± 0.24 kg/m3
